Test results published in patent US7365096B2, “Methods for selectively inhibiting Janus tyrosine kinase 3 (Jak3)” (Board of Regents, The University of Texas System, priority 2002, dated 2008).

Experiments:
[1] = system: T-cell proliferation mediated by TCGFs; settings: cited from earlier work
[2] = target: Btk (Homo sapiens, UniProt Q06187); settings: cited from earlier work
[3] = target: Lyn (Homo sapiens, UniProt P07948); settings: cited from earlier work
[4] = system: graft infiltrating mononuclear cells (GICs); settings: rat, in vivo; cited from earlier work
[5] = target: Tyk2 (Homo sapiens, UniProt P29597); settings: cited from earlier work
Sequence of Tyk2 (P29597 whole entry, species assumed): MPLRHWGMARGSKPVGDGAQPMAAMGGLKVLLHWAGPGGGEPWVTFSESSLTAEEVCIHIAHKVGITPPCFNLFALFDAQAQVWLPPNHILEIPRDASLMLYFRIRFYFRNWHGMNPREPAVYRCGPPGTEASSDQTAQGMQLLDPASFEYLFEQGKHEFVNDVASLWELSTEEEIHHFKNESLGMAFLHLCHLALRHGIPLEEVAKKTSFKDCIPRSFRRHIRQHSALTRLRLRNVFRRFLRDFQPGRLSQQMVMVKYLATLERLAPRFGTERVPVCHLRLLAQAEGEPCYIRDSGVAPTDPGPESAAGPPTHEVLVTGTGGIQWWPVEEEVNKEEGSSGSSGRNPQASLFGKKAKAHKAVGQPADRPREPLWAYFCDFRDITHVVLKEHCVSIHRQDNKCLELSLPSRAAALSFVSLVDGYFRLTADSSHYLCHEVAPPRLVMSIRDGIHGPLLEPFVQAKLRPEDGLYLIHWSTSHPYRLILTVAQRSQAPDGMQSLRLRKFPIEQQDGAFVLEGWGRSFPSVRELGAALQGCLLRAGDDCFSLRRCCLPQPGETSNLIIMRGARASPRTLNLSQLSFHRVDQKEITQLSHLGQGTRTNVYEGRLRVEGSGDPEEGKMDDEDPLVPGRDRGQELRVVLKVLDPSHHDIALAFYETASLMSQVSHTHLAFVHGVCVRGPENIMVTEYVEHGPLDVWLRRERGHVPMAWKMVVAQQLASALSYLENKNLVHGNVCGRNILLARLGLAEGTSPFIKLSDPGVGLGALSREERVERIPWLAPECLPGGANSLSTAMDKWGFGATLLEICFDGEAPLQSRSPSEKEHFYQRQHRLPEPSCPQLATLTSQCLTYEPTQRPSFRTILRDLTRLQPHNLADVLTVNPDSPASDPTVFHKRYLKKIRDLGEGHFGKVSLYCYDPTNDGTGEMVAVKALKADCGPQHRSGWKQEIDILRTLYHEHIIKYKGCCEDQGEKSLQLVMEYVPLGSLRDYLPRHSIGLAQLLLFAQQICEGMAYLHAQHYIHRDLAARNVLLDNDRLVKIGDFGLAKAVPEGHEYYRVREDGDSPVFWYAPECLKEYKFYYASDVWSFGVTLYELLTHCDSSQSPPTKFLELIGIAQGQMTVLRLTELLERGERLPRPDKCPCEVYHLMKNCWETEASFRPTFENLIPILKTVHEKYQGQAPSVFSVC

[6] = target: Syk (Homo sapiens, UniProt P43405); settings: cited from earlier work
[7] = system: Jak; settings: cited from earlier work
[8] = target: T1, Jak3 (Homo sapiens, UniProt P52333); settings: cited from earlier work
T1 sequence (P52333 1-1124): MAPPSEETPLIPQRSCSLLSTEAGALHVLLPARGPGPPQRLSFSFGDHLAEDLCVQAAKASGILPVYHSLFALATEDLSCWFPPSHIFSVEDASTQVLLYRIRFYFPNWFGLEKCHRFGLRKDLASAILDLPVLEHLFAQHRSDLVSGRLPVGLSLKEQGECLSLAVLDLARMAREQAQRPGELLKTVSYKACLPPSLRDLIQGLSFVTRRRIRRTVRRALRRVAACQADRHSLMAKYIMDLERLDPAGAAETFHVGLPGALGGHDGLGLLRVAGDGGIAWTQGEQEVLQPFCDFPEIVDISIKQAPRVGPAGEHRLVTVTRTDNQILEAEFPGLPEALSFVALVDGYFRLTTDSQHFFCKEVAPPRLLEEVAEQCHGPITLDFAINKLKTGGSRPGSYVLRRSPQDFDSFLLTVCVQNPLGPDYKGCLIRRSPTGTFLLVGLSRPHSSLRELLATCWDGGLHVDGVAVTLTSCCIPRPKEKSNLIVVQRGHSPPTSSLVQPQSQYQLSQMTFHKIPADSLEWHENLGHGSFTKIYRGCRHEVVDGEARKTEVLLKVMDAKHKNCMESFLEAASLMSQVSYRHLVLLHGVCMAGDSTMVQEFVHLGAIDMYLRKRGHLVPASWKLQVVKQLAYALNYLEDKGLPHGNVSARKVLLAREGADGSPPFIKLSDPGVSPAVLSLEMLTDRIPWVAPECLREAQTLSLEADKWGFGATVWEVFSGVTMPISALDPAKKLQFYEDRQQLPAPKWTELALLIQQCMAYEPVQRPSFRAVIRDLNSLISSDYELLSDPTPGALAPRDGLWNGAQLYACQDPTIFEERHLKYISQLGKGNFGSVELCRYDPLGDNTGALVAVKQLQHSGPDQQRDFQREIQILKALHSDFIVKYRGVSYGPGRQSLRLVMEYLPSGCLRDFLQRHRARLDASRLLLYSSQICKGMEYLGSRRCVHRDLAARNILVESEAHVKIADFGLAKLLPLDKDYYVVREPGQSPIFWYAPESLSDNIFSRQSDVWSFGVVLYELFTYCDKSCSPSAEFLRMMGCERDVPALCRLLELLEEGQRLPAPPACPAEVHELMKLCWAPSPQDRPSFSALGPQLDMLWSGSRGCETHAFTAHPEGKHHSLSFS

[9] = target: p56Lck (Homo sapiens, UniProt P06239); settings: cited from earlier work
Sequence of p56Lck (P06239 whole entry, species assumed): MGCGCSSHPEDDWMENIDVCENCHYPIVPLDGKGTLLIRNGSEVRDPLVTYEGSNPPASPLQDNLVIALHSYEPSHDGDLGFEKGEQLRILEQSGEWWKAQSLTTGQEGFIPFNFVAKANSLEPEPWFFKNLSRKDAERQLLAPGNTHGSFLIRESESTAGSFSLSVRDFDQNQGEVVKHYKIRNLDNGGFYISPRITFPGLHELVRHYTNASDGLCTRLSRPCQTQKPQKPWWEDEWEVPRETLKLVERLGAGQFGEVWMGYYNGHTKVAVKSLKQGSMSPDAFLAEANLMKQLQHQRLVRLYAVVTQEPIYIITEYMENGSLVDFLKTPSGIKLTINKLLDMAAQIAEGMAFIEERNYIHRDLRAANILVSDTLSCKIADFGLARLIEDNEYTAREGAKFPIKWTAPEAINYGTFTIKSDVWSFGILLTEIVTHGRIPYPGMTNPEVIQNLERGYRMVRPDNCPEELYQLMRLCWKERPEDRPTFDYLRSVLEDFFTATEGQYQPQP

[10] = target: Src (Homo sapiens, UniProt P12931); settings: cited from earlier work
Sequence of Src (P12931 whole entry, species assumed): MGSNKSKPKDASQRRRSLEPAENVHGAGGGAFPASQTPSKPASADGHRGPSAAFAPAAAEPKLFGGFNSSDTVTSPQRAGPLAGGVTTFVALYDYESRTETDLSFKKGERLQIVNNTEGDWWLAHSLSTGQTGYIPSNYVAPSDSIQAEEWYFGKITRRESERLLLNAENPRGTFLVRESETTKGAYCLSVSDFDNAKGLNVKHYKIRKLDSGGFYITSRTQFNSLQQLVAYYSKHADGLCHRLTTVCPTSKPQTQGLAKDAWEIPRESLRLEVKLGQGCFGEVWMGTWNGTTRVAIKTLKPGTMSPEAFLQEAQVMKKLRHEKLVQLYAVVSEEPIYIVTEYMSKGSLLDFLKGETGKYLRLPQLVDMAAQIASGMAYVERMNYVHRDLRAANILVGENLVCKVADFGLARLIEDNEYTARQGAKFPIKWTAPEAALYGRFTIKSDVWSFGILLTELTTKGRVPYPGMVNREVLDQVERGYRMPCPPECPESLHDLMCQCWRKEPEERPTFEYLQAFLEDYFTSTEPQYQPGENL

[11] = target: Lck (Homo sapiens, UniProt P06239); settings: cited from earlier work
Sequence of Lck (P06239 whole entry, species assumed): as the sequence (P06239 whole entry, species assumed) above

[12] = target: Jak1 (Homo sapiens, UniProt P23458); settings: cited from earlier work
Sequence of Jak1 (P23458 whole entry, species assumed): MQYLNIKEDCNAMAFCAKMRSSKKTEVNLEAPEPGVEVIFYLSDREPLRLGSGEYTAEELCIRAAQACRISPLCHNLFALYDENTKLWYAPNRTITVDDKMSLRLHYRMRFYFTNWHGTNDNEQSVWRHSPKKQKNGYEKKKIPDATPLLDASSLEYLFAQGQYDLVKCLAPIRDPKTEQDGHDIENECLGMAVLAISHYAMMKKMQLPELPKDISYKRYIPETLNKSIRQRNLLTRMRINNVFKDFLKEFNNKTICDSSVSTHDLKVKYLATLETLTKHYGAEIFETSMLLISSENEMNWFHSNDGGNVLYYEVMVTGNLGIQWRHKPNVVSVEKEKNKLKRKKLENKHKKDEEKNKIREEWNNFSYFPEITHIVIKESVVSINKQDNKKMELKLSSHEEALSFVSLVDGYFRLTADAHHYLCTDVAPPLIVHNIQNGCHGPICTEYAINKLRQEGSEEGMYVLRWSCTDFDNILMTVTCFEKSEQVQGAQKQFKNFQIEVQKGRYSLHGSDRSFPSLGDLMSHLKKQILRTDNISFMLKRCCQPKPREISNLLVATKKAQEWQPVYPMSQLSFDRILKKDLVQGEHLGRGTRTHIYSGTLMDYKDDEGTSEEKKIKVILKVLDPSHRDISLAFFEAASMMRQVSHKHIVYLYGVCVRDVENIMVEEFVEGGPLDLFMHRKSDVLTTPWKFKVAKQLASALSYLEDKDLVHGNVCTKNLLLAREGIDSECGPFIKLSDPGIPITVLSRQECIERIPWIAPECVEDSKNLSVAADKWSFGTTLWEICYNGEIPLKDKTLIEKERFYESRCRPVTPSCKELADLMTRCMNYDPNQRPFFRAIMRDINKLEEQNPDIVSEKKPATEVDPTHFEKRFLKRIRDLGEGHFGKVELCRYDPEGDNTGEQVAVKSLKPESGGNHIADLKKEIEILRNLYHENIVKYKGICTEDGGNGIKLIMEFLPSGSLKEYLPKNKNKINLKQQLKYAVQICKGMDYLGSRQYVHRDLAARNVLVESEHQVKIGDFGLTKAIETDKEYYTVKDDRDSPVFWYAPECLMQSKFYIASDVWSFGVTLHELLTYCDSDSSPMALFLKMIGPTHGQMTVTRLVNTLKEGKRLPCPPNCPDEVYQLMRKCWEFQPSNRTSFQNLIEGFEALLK

[13] = target: T2, Zap70 (Homo sapiens, UniProt P43403); settings: cited from earlier work
T2 sequence (P43403 1-619): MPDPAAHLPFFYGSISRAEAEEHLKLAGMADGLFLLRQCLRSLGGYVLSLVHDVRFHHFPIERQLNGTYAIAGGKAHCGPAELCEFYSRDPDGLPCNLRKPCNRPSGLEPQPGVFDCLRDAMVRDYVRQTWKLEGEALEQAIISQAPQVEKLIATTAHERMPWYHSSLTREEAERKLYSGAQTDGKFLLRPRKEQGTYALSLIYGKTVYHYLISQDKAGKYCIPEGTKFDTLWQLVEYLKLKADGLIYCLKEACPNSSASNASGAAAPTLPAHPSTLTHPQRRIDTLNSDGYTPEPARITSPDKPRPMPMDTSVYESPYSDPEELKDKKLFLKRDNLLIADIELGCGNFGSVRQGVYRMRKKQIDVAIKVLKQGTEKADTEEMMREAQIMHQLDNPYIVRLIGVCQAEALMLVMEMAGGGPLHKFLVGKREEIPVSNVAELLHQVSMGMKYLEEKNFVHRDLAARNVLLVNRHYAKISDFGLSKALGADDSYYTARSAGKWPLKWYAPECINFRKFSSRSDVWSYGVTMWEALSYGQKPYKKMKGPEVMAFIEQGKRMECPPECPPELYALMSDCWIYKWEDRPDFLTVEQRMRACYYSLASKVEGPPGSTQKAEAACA

[14] = system: allograft; settings: in vivo; cited from earlier work
[15] = system: γc/Jak3-dependent PHA-activated human T cells; test: Proliferation of PHA-activated human T cells ([3H]-thymidine); type: cell-based; settings: for proliferation of PHA-activated human T cells following stimulation with IL-2 (FIG. 7A): IL-2 stimulated
Experimental: Cell culture and treatment. The rat T-cell line Nb2-11c, originally developed by Dr. Peter Gout (Vancouver, Canada), was grown in RPMI-1640 with 10% fetal calf serum (Intergen, cat. no. 1020-90), 2 mM L-glutamine, 5 mM HEPES, pH 7.3, and penicillin-streptomycin (50 IU/ml and 50 μg/ml, respectively), at 37° C./5% CO2. Freshly explanted normal human T lymphocytes purified by isocentrifugation (Ficoll®; EM Science, Gibbstown, N.J.) were phytohemagglutinin (PHA)-activated for 72 hours as previously described.^23 T lymphocytes were made quiescent by washing and incubating for 24 hours in RPMI-1640 medium containing 1% fetal calf serum before exposure to cytokines. […] The Mannich base 649641P (NC1153) was generously provided by Dr. Jonathan Dimmock College of Pharmacy, University of Saskatchewan, Saskatoon, Saskatchewan, Canada. All cells were then stimulated with 1 nM recombinant human IL-2 (Hoffman-LaRoche, Basel, Switzerland), IL4 or IL7 (PeproTech), or ovine prolactin (PRL) supplied by the National Hormone and Pituitary Program, National Institute of Diabetes, Digestive, and Kidney Disease (Bethesda, Md.), at 37° C. Cell pellets were frozen at −70° C.
Proliferation assays. Quiescent human primary T-cells, YT or rat Nb2-11c T-cells (5.0×10^4/well) were plated in flat-bottom, 96-well microtiter plates in 200 μl of quiescent media in the absence or presence of 1 nM IL-2, -4, -7 (PeproTech, Rock Hill, N.J.), or PRL. Next, cells were treated for 16 hours with the Mannich base drug and then pulsed for 4 hours with [^3H]-thymidine (0.5 μCi/200 μl) and harvested onto fiberglass filters. [^3H]-thymidine incorporation was analyzed by liquid scintillation counting as previously described,^23 or using standard techniques that are well known in the art.

[16] = system: Jak3 mediated T-cell growth; settings: cited from earlier work
[17] = target: T1, Jak3; settings: cited from earlier work; remark: listed apart in the source
[18] = rat, in vivo

Sequence of Lyn (P07948 whole entry, species assumed): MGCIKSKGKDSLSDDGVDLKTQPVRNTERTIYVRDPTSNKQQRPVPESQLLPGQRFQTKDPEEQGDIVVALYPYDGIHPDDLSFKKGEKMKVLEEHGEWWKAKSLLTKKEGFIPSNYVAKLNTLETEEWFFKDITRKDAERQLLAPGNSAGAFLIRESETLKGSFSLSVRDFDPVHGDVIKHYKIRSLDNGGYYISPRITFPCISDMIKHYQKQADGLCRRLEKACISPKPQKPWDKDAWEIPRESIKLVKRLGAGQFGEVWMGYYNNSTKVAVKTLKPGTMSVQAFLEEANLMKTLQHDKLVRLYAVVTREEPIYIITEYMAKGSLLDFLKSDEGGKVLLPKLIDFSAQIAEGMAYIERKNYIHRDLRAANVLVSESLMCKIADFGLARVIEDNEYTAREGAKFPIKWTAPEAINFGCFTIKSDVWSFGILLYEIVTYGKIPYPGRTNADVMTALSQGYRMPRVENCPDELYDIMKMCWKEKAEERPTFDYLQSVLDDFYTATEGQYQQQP
Sequence of Btk (Q06187 whole entry, species assumed): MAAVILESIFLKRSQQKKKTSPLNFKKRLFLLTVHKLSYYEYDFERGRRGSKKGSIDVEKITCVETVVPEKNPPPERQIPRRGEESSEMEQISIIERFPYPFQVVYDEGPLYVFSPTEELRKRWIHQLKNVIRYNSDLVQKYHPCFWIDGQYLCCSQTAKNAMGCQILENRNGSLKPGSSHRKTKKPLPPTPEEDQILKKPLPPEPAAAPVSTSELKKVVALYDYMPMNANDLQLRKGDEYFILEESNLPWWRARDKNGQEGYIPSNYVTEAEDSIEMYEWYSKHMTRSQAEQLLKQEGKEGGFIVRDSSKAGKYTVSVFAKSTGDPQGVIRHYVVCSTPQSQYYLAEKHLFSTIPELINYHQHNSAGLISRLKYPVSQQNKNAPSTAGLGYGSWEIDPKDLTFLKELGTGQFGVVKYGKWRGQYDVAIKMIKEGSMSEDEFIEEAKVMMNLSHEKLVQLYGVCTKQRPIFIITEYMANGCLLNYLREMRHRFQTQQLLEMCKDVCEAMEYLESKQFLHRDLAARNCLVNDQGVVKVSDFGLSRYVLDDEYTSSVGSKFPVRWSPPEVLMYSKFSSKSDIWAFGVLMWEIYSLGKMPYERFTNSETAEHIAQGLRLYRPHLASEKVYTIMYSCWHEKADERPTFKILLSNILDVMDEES

N#C/C(=C\c1ccc(O)c(O)c1)C(=O)NCc1ccccc1 [AG-490]
T-cell proliferation mediated by TCGFs [1]: competent to inhibit
inhibition of Btk [2]: does not inhibit
inhibition of Lyn [3]: does not inhibit
IL2Rα expression (ribonuclease protection assays) [4]: failed to affect
Stat5a/b DNA binding of ex vivo IL-2 stimulated GICs [4]: reduced
graft infiltration of mononuclear cells (GICs) [4]: reduced
inhibition of Tyk2 [5]: does not inhibit
inhibition of Syk [6]: does not inhibit
effects on closest related family member Jak [7]: exert similar effects
Jak3 autokinase activity [8]: competent to inhibit
effect on p56Lck [9]: neither of those two agents affects
inhibition of Src [10]: does not inhibit
inhibition of Lck [11]: does not inhibit
inhibition of Jak1 [12]: does not inhibit
effect on Zap70 [13]: neither of those two agents affects

CCCCCCCCCCCC1C=C/C(=C/c2[nH]c(-c3ccc[nH]3)cc2OCc2ccccc2)N1.Cl (stereo not drawn) [PNU156804]
T-cell proliferation mediated by TCGFs [1]: competent to inhibit
allograft survival [14]: prolongs allograft survival
interaction with CsA [14]: synergistically
interaction with RAPA [14]: additively
IC50 ([15]; Homo sapiens, IL-2 driven T-cell growth, 16 hours drug, [3H]-thymidine, read-out: IC50, disrupting cell growth): ~10 µM
inhibition of Jak3 mediated T-cell growth by IL-2 compared to prolactin (Jak2) [16]: greater specificity
Jak3 autokinase activity [8]: competent to inhibit
effect on p56Lck [9]: neither of those two agents affects
Jak3 autophosphorylation as compared with Jak2 [17]: preferentially inhibited
effect on Zap70 [13]: neither of those two agents affects

CO[C@H]1C[C@@H]2CC[C@@H](C)[C@@](O)(O2)C(=O)C(=O)N2CCCC[C@H]2C(=O)O[C@H]([C@H](C)C[C@@H]2CC[C@@H](O)[C@H](OC)C2)CC(=O)[C@H](C)/C=C(\C)[C@@H](O)[C@@H](OC)C(=O)[C@H](C)C[C@H](C)/C=C/C=C/C=C/1C [RAPA, rapamycin, reference compound]
peripheral blood counts (PBC) [18]: reduced PBC compared to untreated rats, in contrast to SRL

COc1cc(C2C(C(=O)Nc3ccc(Cl)c(Cl)c3)=C(C)NC(C)=C2C(=O)Nc2ccc(Cl)c(Cl)c2)ccc1O [compound 637712]
proliferation of PHA-activated human T cells following stimulation with IL-2 (FIG. 7A) [15]: blocked

N#CCCN(CCC#N)c1ccc(C(Sc2ccccc2)C(NC(=O)c2cc([N+](=O)[O-])ccc2Cl)C(=O)Sc2ccccc2)cc1 (stereo not drawn) [compound 640674]
proliferation of PHA-activated human T cells following stimulation with IL-2 (FIG. 7A) [15]: blocked

CC1(C)c2ccccc2N2O[C@@H]3C(=O)N(c4ccccc4)C(=O)[C@@H]3C21c1ccccc1 (stereo partly drawn) [compound 643423]
proliferation of PHA-activated human T cells following stimulation with IL-2 (FIG. 7A) [15]: blocked

CCCCCCCC(=O)OCC(C[As](=O)(O)O)OC(=O)CCCCCCC (stereo not drawn) [compound 655906]
proliferation of PHA-activated human T cells following stimulation with IL-2 (FIG. 7A) [15]: blocked

CC(=O)Oc1ccc2cc(-c3ccccc3OC(C)=O)c(=O)oc2c1 [compound 673137]
proliferation of PHA-activated human T cells following stimulation with IL-2 (FIG. 7A) [15]: blocked

O=C1c2ccccc2C(=O)[C@@]23O[C@@]12C1(Oc2cccc4cccc(c24)O1)[C@@H]1O[C@@H]1[C@@H]3O [compound 683332]
proliferation of PHA-activated human T cells following stimulation with IL-2 (FIG. 7A) [15]: blocked

Cc1oc2c(c1C)S(=O)(=O)C(C#N)C(c1ccccc1)N2 (stereo not drawn) [compound 693812]
proliferation of PHA-activated human T cells following stimulation with IL-2 (FIG. 7A) [15]: blocked
